In patent publication US9623226B2, “Device for efficient delivery of compounds to or through the skin or biological barriers, using light-absorbing thin films” (Universidade de Coimbra, priority 2011, dated 2017):

How the values were obtained:
[1] = In vitro transdermal delivery through minipig skin samples, passive versus active (photoacoustic device); assay type: in vitro ADME; details: extraction with dichloromethane and fluorescence, confirming fluorescence microscopy; high-impulse broadband pressure wave versus passive
Procedure: Skin sections were cut from the back of the minipigs after they had been sacrificed. These skin sections were frozen and kept at −18° C. until use in in vitro tests. Before each in vitro test, the required amount of minipig skin was slowly brought to room temperature. All the tests were carried out at room temperature.
The skin samples collected after the experiments were analyzed by microscopy to evaluate the penetration depth of the desired compounds, or followed an extraction procedure to evaluate their amounts under the skin. The evaluation of the penetration depth by fluorescence microscopy or by confocal microscopy requires tissue fixation. The first step in the fixation was immersion in paraformaldehyde (4% in aqueous solution) for at least 24 h. Next, the samples were transferred to a 25% sucrose solution for at least 48 h. […] The skin slices were collected in microscope slides and kept refrigerated until they were analyzed by fluorescence microscopy and confocal microscopy. […]
In order to evaluate the quantities of the F2TPPMet delivered under the skin a specific method was developed. […] Fluorescence calibration curves of the pharmacological excipient delivered in the skin were performed in the extractor solvent to validate the methodology used. Finally, the mass delivered onto the skin is determined for each essay substituting its fluorescence in the calibration curve. […]

skin of a minipig = assay: In vivo transdermal delivery on the back of minipigs, passive and active (photoacoustic device); details: device of Example 1, 12 laser shots at 355 nm, 10 mJ per pulse
Source text: In vivo and in vitro tests employed four minipigs obtained from IMIDHA (Instituto Madrileño de Investigación y Desarrollo Rural, Agrario y Alimentario)—Aranjuez (Madrid). They were all females, aged 6-8 months, white with brown spots, average weight 56.8 kg (66.2, 57.1, 43.5, 60.6 kg). They were received at Estação Zootécnica Nacional, Vale de Santarém, where they were accommodated in individual boxes with 1.5 m^2, feed with a standard diet for pigs and water ad libidum, for an acclimation period of three weeks. The study was performed in accordance to the Portuguese ethical guidelines on a license granted by Dircção de Serviços de Saúde o Protecção Animal, ref. 0420/000/000/2007. Access to food was suspended 24 h hours before treatment. The backs of the animals were shaved 24 h prior to the in vivo application of the dermatological formulations. […]
The skin samples collected after the experiments were analyzed by microscopy to evaluate the penetration depth of the desired compounds, or followed an extraction procedure to evaluate their amounts under the skin. The evaluation of the penetration depth by fluorescence microscopy or by confocal microscopy requires tissue fixation. […] The skin slices were collected in microscope slides and kept refrigerated until they were analyzed by fluorescence microscopy and confocal microscopy. […]

## 5,10,15,20-tetrakis(2,6-fluoro-3-N-methylsulfamoylphenyl)porphyrin [F2TPPMet]
[1]
  quantity of F2TPPMet delivered to the skin, active versus passive transdermal delivery: increase in the quantity of F2TPPMet delivered to the skin
Skin of a minipig; 20 minutes incubation
  state of the stratum corneum after active transdermal delivery: stratum corneum remained intact
Skin of a minipig; ca 1 cm^2, 20 minutes incubation
  distribution in the skin by fluorescence microscopy after active transdermal delivery: distributed over all the epidermis
